Values of other authors, collected in patent publication US12397030B2, “Polyphenol compositions and uses thereof” (METAGENICS, INC., priority 2019, dated 2025).

How the values were obtained:
[1] = humans
[2] = system: ATP-binding cassette transporter A1 (ABCA1); details: enhances reverse cholesterol transport

Row | SMILES | time by which no longer detected [1] | time to appearance following consumption [1] | elimination half-life ([1]; after consumption) | ABCA1 expression in macrophages [2]
1 | O=c1oc2c(O)c(O)cc3c(=O)oc4c(O)c(O)cc1c4c23 [ellagic acid] | ≤ 5 h | ~30 min | 42.6 min | –
2 | O=c1oc2cc(O)ccc2c2ccccc12 [urolithin B] | – | – | – | upregulation
